Assay results reported in PubChem BioAssay (NCI).
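Step 1: Grow cells in 96-well plates. Step 2: Expose to compound for 48 hours at 5 concentrations. Step 3: Interpolate endpoints linearly; if unreached, use highest concentration. At the TGI there is no net growth.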

Columns and labels:
Test in all cases: NCI tumour cell line growth inhibition, 48 h
[1] = system: CAKI-1 renal
[2] = system: SN12C renal
[3] = system: PC-3 prostate
[4] = system: HL-60(TB) leukemia
[5] = system: SK-MEL-28 melanoma
[6] = system: MDA-MB-435
[7] = system: HCT-116 colon
[8] = system: M14 melanoma
[9] = system: 786-0 renal
[10] = system: U251 CNS
[11] = system: SW-620 colon
[12] = system: HS 578T breast
[13] = system: K-562 leukemia
[14] = system: MCF7 breast
[15] = system: CCRF-CEM leukemia
[16] = system: T-47D breast
[17] = system: UACC-257 melanoma
[18] = system: COLO 205 colon
[19] = system: A498 renal
[20] = system: UO-31 renal
[21] = system: A549 NSCLC
[22] = system: HCC-2998 colon
[23] = system: UACC-62 melanoma
[24] = system: NCI-H226 lung
[25] = system: SR leukemia
[26] = system: HOP-92 NSCLC
[27] = system: SF-268 CNS
[28] = system: DU-145 prostate
[29] = system: MOLT-4 leukemia
[30] = system: RPMI-8226 leukemia
[31] = system: OVCAR-8 ovarian
[32] = system: NCI-H460 lung
[33] = system: HT29 colon
[34] = system: ACHN renal
[35] = system: LOX IMVI melanoma
[36] = system: SK-MEL-5 melanoma
[37] = system: RXF 393 renal
[38] = system: SNB-75 CNS
[39] = system: NCI-H23 lung
[40] = system: SF-539 CNS
[41] = system: SF-295 CNS
[42] = system: OVCAR-5 ovarian
[43] = system: SNB-19 CNS
[44] = system: OVCAR-3 ovarian
[45] = system: SK-MEL-2 melanoma
[46] = system: MDA-N
[47] = system: NCI/ADR-RES ovarian
[48] = system: KM12 colon
[49] = system: SK-OV-3 ovarian
[50] = system: MDA-MB-231 breast
[51] = system: HCT-15 colon
[52] = system: BT-549 breast
[53] = system: OVCAR-4 ovarian
[54] = system: IGROV1 ovarian
[55] = system: TK-10 renal
[56] = system: NCI-H522 lung
[57] = system: HOP-62 NSCLC
[58] = system: EKVX NSCLC
[59] = system: MALME-3M melanoma

Measured: TGI

Cc1ccc(NC(=O)/C(=N\NC(N)=O)c2c(O)c3ccccc3[nH]c2=O)cc1
> 100 µM: [1] | [2] | [3] | [4] | [5] | [6] | [7] | [8] | [9] | [10] | [11] | [12] | [13] | [14] | [15] | [16] | [17] | [18] | [19] | [20] | [21] | [22] | [23] | [24] | [25] | [26] | [27] | [28] | [29] | [30] | [31] | [32] | [33] | [34] | [35] | [36] | [37] | [38] | [39] | [40] | [41] | [42] | [43] | [44] | [45] | [46] | [47] | [48] | [49] | [50] | [51] | [52] | [53]

CC(=O)OC1[C@@H](OC(C)=O)CN(OCc2ccccc2)C[C@H]1OC(C)=O (some centres undefined)
76.4 µM: [49]
> 100 µM: [1] | [54] | [2] | [55] | [3] | [4] | [5] | [6] | [7] | [8] | [9] | [10] | [11] | [56] | [12] | [13] | [14] | [15] | [16] | [17] | [18] | [19] | [20] | [21] | [22] | [23] | [24] | [25] | [26] | [27] | [28] | [57] | [29] | [30] | [31] | [32] | [33] | [34] | [35] | [36] | [37] | [38] | [39] | [40] | [41] | [42] | [43] | [44] | [58] | [45] | [46] | [47] | [48] | [50] | [51] | [52] | [53]

Cc1nc2ccccc2c(=O)n1/N=C/c1ccc(N(C)C)cc1
54 µM: [12]
> 100 µM: [1] | [54] | [2] | [55] | [3] | [4] | [5] | [6] | [7] | [59] | [8] | [9] | [10] | [11] | [56] | [14] | [15] | [16] | [17] | [18] | [19] | [21] | [22] | [23] | [24] | [25] | [26] | [27] | [28] | [57] | [29] | [30] | [31] | [32] | [33] | [34] | [35] | [36] | [39] | [40] | [41] | [42] | [43] | [44] | [58] | [45] | [46] | [47] | [48] | [49] | [50] | [51] | [52] | [53]
43.9 µM: [38]

CC1CC(C(=O)OC2OC(COC3OC(CO)C(OC4OC(C)C(O)C(O)C4O)C(O)C3O)C(O)C(O)C2O)C2CCC3(C)C(=CCC4(C)C3CCC3C(C)(CO)C(O)C(O)CC34C)C2C1C (centres undefined)
> 100 µM: [1] | [55] | [8] | [13] | [20] | [21] | [28] | [47] | [49] | [51]
82.8 µM: [41]
41.7 µM: [7]
33.3 µM: [39]
34.5 µM: [6]
35.5 µM: [12]
45.8 µM: [4]
84.6 µM: [3]
32.5 µM: [38]
34.6 µM: [26]
51.5 µM: [9]
37.2 µM: [57]
88.3 µM: [11]
35 µM: [16]
80.1 µM: [24]
37.8 µM: [27]
66.6 µM: [32]
33.4 µM: [48]
32.3 µM: [31] | [52]
32.7 µM: [18] | [23]
60.4 µM: [44]
30.1 µM: [56]
40.8 µM: [22]
66.7 µM: [42]
36.4 µM: [46]
49.2 µM: [30]
41.4 µM: [29]
33.2 µM: [54]
41.1 µM: [33]
41 µM: [25]
42.2 µM: [45]
53 µM: [14]
52.2 µM: [15]
38 µM: [40]
33.5 µM: [5] | [10]
> 10 µM: [17] | [19] | [34] | [58]
58.8 µM: [35]
33 µM: [36]
37 µM: [2]
37.3 µM: [53]
32 µM: [43]
34 µM: [50]
